Values quoted from earlier work, collected in patent US7449585B2, “Indazol-3-ones and analogues and derivatives thereof which modulate the function of the vanilloid-1 receptor (VR1)” (Merck Sharp & Dohme Ltd., priority 2003, dated 2008).

Target: VR1 (Rattus norvegicus, UniProt O35433)
Conditions: literature (Wahl et al., Mol. Pharmacol, 59:9, 2001)

VR1, sequence (O35433 whole entry): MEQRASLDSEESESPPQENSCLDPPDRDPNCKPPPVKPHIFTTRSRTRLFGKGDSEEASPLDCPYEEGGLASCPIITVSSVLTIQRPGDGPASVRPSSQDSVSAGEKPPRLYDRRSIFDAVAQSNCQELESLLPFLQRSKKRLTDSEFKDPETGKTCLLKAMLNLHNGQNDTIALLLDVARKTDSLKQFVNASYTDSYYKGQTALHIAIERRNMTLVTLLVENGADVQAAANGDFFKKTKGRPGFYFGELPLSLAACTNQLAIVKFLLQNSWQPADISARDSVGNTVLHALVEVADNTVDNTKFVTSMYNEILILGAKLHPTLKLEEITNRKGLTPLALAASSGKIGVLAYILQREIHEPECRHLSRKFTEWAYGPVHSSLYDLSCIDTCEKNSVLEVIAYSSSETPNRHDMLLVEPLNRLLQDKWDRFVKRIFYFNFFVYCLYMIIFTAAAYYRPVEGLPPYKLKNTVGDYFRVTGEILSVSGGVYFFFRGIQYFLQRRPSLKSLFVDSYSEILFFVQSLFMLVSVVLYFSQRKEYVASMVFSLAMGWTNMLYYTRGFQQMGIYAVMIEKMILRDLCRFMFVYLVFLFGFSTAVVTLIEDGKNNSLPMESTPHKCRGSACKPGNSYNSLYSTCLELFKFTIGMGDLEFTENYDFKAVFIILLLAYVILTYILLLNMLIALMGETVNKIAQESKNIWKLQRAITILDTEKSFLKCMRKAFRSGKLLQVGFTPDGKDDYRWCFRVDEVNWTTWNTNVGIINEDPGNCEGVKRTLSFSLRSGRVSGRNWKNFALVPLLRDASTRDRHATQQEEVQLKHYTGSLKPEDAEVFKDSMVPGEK

In the case of `C=C(C)[C@]12C[C@@H](C)[C@@]34O[C@](Cc5ccccc5)(O[C@@H]1[C@@H]3C=C(COC(=O)Cc1cc(I)c(O)c(OC)c1)C[C@]1(O)C(=O)C(C)=C[C@@H]41)O2` [Iodo-resiniferatoxin], the “VR1 antagonist potency (in words)” value is listed as “nanomolar antagonist”.
